In patent US20040248971A1, “Use of vitamin e succinate and antiandrogen combination” (priority 2001, published 2004):

Legend:
AR [1] = experiment: AR translocation / immunostaining; type: cell-based
Excerpt: Whether VES could influence translocation of AR was examined.

PPARα = experiment: PPAR expression in LNCaP cells (Western blotting); type: cell-based, human
Description: (§1) Cells were harvested at different time points. Twenty-five micrograms of RNA and 50 μg of protein collected from the same culture dish were applied for Northern blotting and Western blotting assays, respectively (45). The amount of actin is shown as a control. […] LNCaP cells without treatment were harvested on day 2 and used as a control. Whole-cell lysates were subjected to Western blotting assay using primary antibodies for AR, VDR, PPAR, or RXR.
(§2) Total protein lysate from LNCaP cells was prepared as previously described (Yeh, PNAS). After separation of 50 μg protein by SDS-PAGE gel, proteins were transferred by electrophoresis to Immobilon-P membrane (Millipore Corp., Bedford, Mass.) and incubated in PBS with 0.1% Tween-20 and 10% FCS for 2 h. Primary antibodies specific for human AR, PSA, and β-actin were diluted in PBS with 0.1% Tween-20 (PBST) as described in manual and incubated at room temperature for 2 h. Membranes were washed in PBST (three times, 10 min each time) and incubated with AP-conjugated secondary antibody which was diluted as described in manual in PBST and incubated for 2 h in room temperature, washed in PBST (three times, 10 min each time). The proteins were detected by AP western blotting reagents.

AR [2] = experiment: In vivo AR radioligand competition binding assay in LNCaP cells; set-up: species or system human; details: 10 μM VES pretreatment 24 h; 2.5 nM [3H]R1881
Description: [^3H]R1881-binding without competition was set at 100%. […] (B) AR N-C dimerization.
LNCaP cells were plated into 60-mm dishes and grown to 60% confluence. […] After 1-h incubation, cells were harvested by lysis buffer (PBS with 1% Triton X-100). Equal protein amounts of cell extract were subjected to binding assays, which were terminated by adding hydroxylapatite. Each sample was filtered by using a sampling manifold (Millipore) and unbound ligand was removed by washing. Filter papers that contained bound ligand were transferred to counting vials containing 5 ml of liquid scintillation fluid and counted with a multipurpose scintillation counter (Beckman).

AR [3] = experiment: AR expression in LNCaP cells (Western and Northern blotting); type: cell-based, human
Description: Cells were harvested at different time points. Twenty-five micrograms of RNA and 50 μg of protein collected from the same culture dish were applied for Northern blotting and Western blotting assays, respectively (45). The amount of actin is shown as a control. […] LNCaP cells without treatment were harvested on day 2 and used as a control. Whole-cell lysates were subjected to Western blotting assay using primary antibodies for AR, VDR, PPAR, or RXR. […] Protein harvested from cells without treatment on the first day (day 0) was used as a control. Fifty micrograms of whole-cell lysate was subjected to Western blotting assay. […] LNCaP cells were cultured in RPMI medium with 8% FBS, and treated with […] of the indicated reagent. Proteins harvested from cells without treatment on day 2 were used as a control. 60 micrograms of whole cell lysate was subjected to Western blotting assay. Total protein lysate from LNCaP cells was prepared as previously described (Yeh, PNAS). […] Membranes were washed in PBST (three times, 10 min each time) and incubated with AP-conjugated secondary antibody which was diluted as described in manual in PBST and incubated for 2 h in room temperature, washed in PBST (three times, 10 min each time). The proteins were detected by AP western blotting reagents. […] Cells were harvest after 1, 2, and 3 days treatment. Total RNA was extracted using Trizol, according to manufacturer's directions (GIBCO). Total RNA (20 μg) was electrophoresed though formaldehyde-agarose gels and transferred to Hybond-N+ membrane (Amersham Pharmacia Biotech) according the company's protocol (17). For Northern blots, the fragments of the human PSA, AR, and β-actin cDNA were labeled with [^32P]-dCTP using the random primed DNA labeling kit from Amersham Pharmacia Biotech. Membranes were prehybridized, hybridized, and washed using Rapid-hyb system from Amersham Pharmacia Biotech, according to the manufacturer's user manual. The mRNA was detected using phosphorimager screen system (Molecular Dynamics).

[4] = test system: primary cultured fibroblasts from normal prostate tissue; experiment: MTT assay, primary cultured prostate fibroblast growth; type: cell-based; details: 10 μM VES, 10% FBS DMEM
PSA6.0-Luc = experiment: PSA promoter luciferase reporter (PSA6.0-Luc) in LNCaP cells; type: cell-based, human; details: 5 nM DHT, 10 μM VES or Suc
Description: Cells without treatment were harvested on day 2 and used as a control. Western blotting was used to detect the expression of PSA protein. Actin served as an internal control. […] Cells were harvested on days 1, 2, and 3 for Northern blotting analysis. β-Actin served as an internal control. […] The transfections were performed at least three times and presented as an average±SD. […] LNCaP cells without any treatment harvested on the first day (day 0) is used as a control. Western blotting was applied to detect the expression of PSA protein level. […] Cells were harvested on day 1, 2, and 3 for Northern blotting analyses. (G). […] The transfections were performed three times and presented as an average: bar-denotes standard deviation.

RXRα = experiment: RXR expression in LNCaP cells (Western blotting); type: cell-based, human; details: 10 μM VES
Description: as §1, §2

LNCaP cells = experiment: MTT assay / cell counting, LNCaP cell growth; type: cell-based, human; details: 10 μM VES, 4 days, phase-contrast

Compound: Cc1c(C)c2c(c(C)c1OC(=O)CCC(=O)O)CCC(C)(CCCC(C)CCCC(C)CCCC(C)C)O2 (stereo not drawn) [VES, RRR-α-tocopheryl succinate]
- AR distribution between cytosol and nucleus (AR [1]): little influence
- total AR-staining intensity (AR [1]): reduced
- PPARr expression (PPARα; 10 uM VES): little effect
- PPARα expression (PPARα; 10 μM VES): little effect
- influence on AR ligand binding (AR [2]): little influence
- AR mRNA and protein expression (AR [3]; 8% FBS, 10 μM VES, Northern and Western blotting): inhibits
- AR expression (AR [3]; 8% FBS, Western blotting (FIG. 9)): most effective isoform
- AR expression at the protein level (AR [3]; Western blotting, 10 μM VES, Suc or SM, 10 nM Vit D): could suppress
- prostate fibroblast cell growth [4]: only a marginal inhibitory effect and not
- DHT induced PSA6.0-Luc activity (PSA6.0-Luc): repressed
- RXRα expression (RXRα): little effect
- morphologic change of LNCaP cells (LNCaP cells): most of the cells dying
